Experimental data reported in patent US20200002377A1, “COMPOUNDS USEFUL FOR THE TREATMENT AND/OR CARE OF THE SKIN, HAIR, NAILS AND/OR MUCOUS MEMBRANES” (LUBRIZOL ADVANCED MATERIALS, INC., priority 2016, published 2020).
Residues, ends and D or L forms follow the SMILES beside them. *: point of attachment. Palmitoyl = CCCCCCCCCCCCCCCC(=O)*; NHhexadecyl = CCCCCCCCCCCCCCCCN*; Myristoyl = CCCCCCCCCCCCCC(=O)*; NHHex = CCCCCCN*

How the values were obtained:
[1] = tested on: Staphylococcus epidermidis; test: Adherence of Staphylococcus epidermidis in keratinocytes (HaCaT) in competition with S. aureus bioparticles; format: cell-based; conditions: 50 μg/ml, 24 h, basal = 0
Protocol: After that treatment, cells are washed with phosphate-buffered saline (PBS, Sigma) and are then incubated with a solution of Staphylococcus epidermidis (ATCC®12228™, Culture Collections) treated with green-fluorescence calcein AM (Life technologic) and Alexa Fluor 594™ Bioparticles Staphylococcus aureus (ThermoFisher) in PBS for 30 minutes at 37° C. and protected from light. At the end of the incubation period, cells are washed with PBS and fixed in 4% (v/v) paraformaldehyde (PFA, Sigma) for 30 minutes. After rinsing with PBS, the nuclei are stained with Hoechst 33342, trihydrochloride trihydrate (ThermoFisher) in PBS for 10 minutes before analysis.
Cellular imaging is performed by fluorescence microscopy using the Operetta® High Content Imaging System (PerkinElmer). From each fluorescence image, Staphylococcus epidermidis is quantified as a number of spots and normalized against the number of keratinocyte nuclei and the total bacteria number (understood as the addition of detected S. epidermidis spots and S. aureus bioparticles). Each value obtained is normalized respect to basal conditions (non-treated keratinocytes). An image is taken in three different fields per well. 12 representative images from each condition are analyzed with Harmony software (PerkinElmer).
The normalized percentage of Staphylococcus epidermidis respect to basal conditions in treated keratinocytes is represented in Table 17.

[2] = tested on: Reconstructed Human Epidermis (RHE); test: Lipidomic profile (UPLC-MS) of in vitro epidermal model; format: cell-based; conditions: 50 μg/ml, 24 hours, vs basal conditions
Protocol: The SkinEthic human tissue models (EpiSkin™) are removed from their agarose-nutrient solution in the multiwell plate immediately after arrival and are placed in a 6-well plate in which each well has previously been filled with SkinEthic Growth Medium (EpiSkin™). After overnight incubation at 37° C., 5% CO2, Reconstructed Human Epidermis (RHE) are treated with 50 μg/ml of peptides Ac-Glu-Glu-Met-Gln-Arg-Arg-NH2 (PEP-1), Ac-Glu-Glu-Met-Gln-Arg-Arg-Ala-NH2 (PEP-2) or Ac-Glu-Glu-Met-Gln-Arg-Arg-Ala-Asp-NH2 (PEP-3) or medium (basal conditions) for 24 hours at 37° C. and 5% CO2. After the 24 hours treatment, RHE are frozen and stored at −20° C. Each treatment is applied to five RHE per condition.
Epidermal membrane model samples are thawed and removed from the inserts using a scalpel and transferred to homogenization tubes. Samples are mixed with sodium chloride (50 mM) and chloroform/methanol (2/1) (v:v) and homogenized. The extraction solvent is spiked with metabolites not detected in unspiked human serum extracts. After homogenizing the samples, extracts are incubated for 1 hour at −20° C. and centrifuged at 18,000×g for 15 minutes. The organic phase is then collected and dried under vacuum. Dried extracts are finally reconstituted in acetonitrile/isopropanol (1/1) (v:v), centrifuged at 18,000×g for 5 minutes and transferred to vials for UPLCs-MS analysis.
All data are processed using the TargetLynx™ application manager for MassLynx™ 4.1 software (Waters Corp., Milford, USA). A set of predefined retention time, mass-to-charge ratio pairs, Rt-m/z, corresponding to metabolites included in the analysis are fed into the program. Associated extracted ion chromatograms (mass tolerance window=0.05 Da) are then peak-detected and noise-reduced in both the LC and MS domains such that only true metabolite related features are processed by the software. A list of chromatographic peak areas is then generated for each sample injection and value respect to basal conditions is calculated.
Average of five values obtained for each peptide in relation to those obtained for basal conditions (without peptide in the medium) are shown in Table 11.

[3] = tested on: Nuclear Factor Kappa B subunit 1 (NFKB1); test: Innate immune response gene expression in HEKa, real time PCR array; format: cell-based, human; conditions: 50 μg/ml, 24 h
Protocol: HEKa cells (Life Technologies) are seeded at 6.0×10^5 cells/well in 6-well plates and incubated in culture medium Epillfe™ with defined Growth Supplement (EDGS, Life Technologies), at 37° C. in a water-saturated atmosphere of 95% air and 5% CO2. After 24 hours of incubation under these conditions, medium is removed and cells are incubated with 50 μg/ml (w/v) of a peptide of the invention (see Table 16) in fresh culture medium keeping two wells where HEKa cells are incubated with medium only (basal conditions) at 37° C. and 5% CO2.
After 24 h of incubation, the cells are lysed directly in the wells following the protocol described on the RNeasy™ Mini kit (Qiagen) according to the manufacturer's protocol. The lysed cells are homogenized and the RNases are inactivated. The genomic DNA is removed from the samples by using gDNA Eliminator spin columns (Qiagen). Then the samples are passed through special RNA binding columns (Qiagen) and, after several microcentrifugation washes to eliminate contaminants and impurities, the purified RNA is eluted with 50 μl of ultrapure water. Quantification and analysis of purity of RNA samples are performed after RNA elution with a biophotometer (Eppendorf). 1 μg of high-quality RNA is retrotranscribed with iScript™ advanced (BioRad) in a final volume of 20 μl·Complete reaction mix is incubated in a thermal cycler (Eppendorf) at 42° C. for 30 minutes, and the reactions are stopped at 85° C. for 5 minutes. Complementary DNA is amplified by qPCR in a real-time PCR thermocycler (BioRad) using SYBR®Green supermix (BioRad) and a customized plate for use with SYBR®Green (BioRad). SYBR®Green binds to double-stranded DNA molecules and emits fluorescence which is quantified and is proportional to the amount of the product in the PCR reaction. Cycling conditions in BioRad CFX96™ instrument are 95° C. for 3 minutes, followed by 40 cycles of denaturing at 95° C. for 5 seconds, annealing and elongation at 60° C. for 30 seconds. GAPDH (Glyceraldehyde 3-phosphate dehydrogenase), TBP (TATA box binding protein) and HRPT1 (hypoxanthine phosphoribosyltransferase 1) are used as endogenous controls. Fold change relative to the expression of the sample genes and reference genes is calculated using normalized expression (ΔΔ(Ct)) method with default threshold values using CFX Manager Software (BioRad).
Genes analyzed are Chemokine (C-C motif) Ligand 5 (CCL5), Myeloid Differentiation primary response gene 88 (MyD88), Nuclear Factor Kappa B subunit 1 (NFKB1) and interferon Regulatory Factor 3 (IRF3).

Ac-EEMQRR-NH2 [PEP-1, Ac-Glu-Glu-Met-Gln-Arg-Arg-NH2]
S. epidermidis (%), normalized percentage respect to basal conditions [1]: 13.63. %
Cer_AP48 N-(alpha-hydroxyacyl) phytosphingosines [2]: 1.21 fold change
Cer_NP48 N-acyl phytosphingosines [2]: 1.21 fold change
Cer_NP49 N-acyl phytosphingosines [2]: 1.17 fold change
Cer_NP50 N-acyl phytosphingosines [2]: 1.18 fold change
Cer_NP51 N-acyl phytosphingosines [2]: 1.44 fold change
Cer_NS50 N-acyl sphingosines [2]: 1.20 fold change
Cer_NS51 N-acyl sphingosines [2]: 1.14 fold change
Cer_NS52 N-acyl sphingosines [2]: 1.35 fold change
Cer_NdS47 N-acyl dihydrosphingosines [2]: 1.14 fold change
Cer_NdS48 N-acyl dihydrosphingosines [2]: 1.21 fold change
Cer_NdS49 N-acyl dihydrosphingosines [2]: 1.38 fold change
Cer_NdS50 N-acyl dihydrosphingosines [2]: 1.42 fold change
NFKB1 fold induction respect to basal conditions [3]: 2.59

Ac-EEMERRAD-NH2 [PEP-11, Ac-Glu-Glu-Met-Glu-Arg-Arg-Ala-Asp-NH2]
S. epidermidis (%), normalized percentage respect to basal conditions [1]: 4.24%
NFKB1 fold induction respect to basal conditions [3]: 2.63

Ac-EEMQRRAQ-NH2 [PEP-19, Ac-Glu-Glu-Met-Gln-Arg-Arg-Ala-Gln-NH2]
S. epidermidis (%), normalized percentage respect to basal conditions [1]: 81.69%
NFKB1 fold induction respect to basal conditions [3]: 2.73

Ac-QEMQRRAD-NH2 [PEP-9, Ac-Gln-Glu-Met-Gln-Arg-Arg-Ala-Asp-NH2]
S. epidermidis (%), normalized percentage respect to basal conditions [1]: 21.36%
NFKB1 fold induction respect to basal conditions [3]: 2.66

Ac-EEMQRRTD-NH2 [PEP-21, Ac-Glu-Glu-Met-Gln-Arg-Arg-Thr-Asp-NH2]
S. epidermidis (%), normalized percentage respect to basal conditions [1]: 16.21%
NFKB1 fold induction respect to basal conditions [3]: 2.39

CCCCCCCCCCCCCCCC(=O)N[C@@H](CCC(=O)O)C(=O)N[C@@H](CCC(=O)O)C(=O)N[C@@H](CCSC)C(=O)N[C@@H](CCC(N)=O)C(=O)N[C@@H](CCCNC(=N)N)C(=O)N[C@@H](CCCNC(=N)N)C(N)=O [PEP-6, Palm-Glu-Glu-Met-Gln-Arg-Arg-NH2] (Palmitoyl-EEMQRR-NH2)
S. epidermidis (%), normalized percentage respect to basal conditions [1]: 29.75%
NFKB1 fold induction respect to basal conditions [3]: 2.62

CCCCCCCCCCCCCC(=O)N[C@@H](CCC(=O)O)C(=O)N[C@@H](CCC(=O)O)C(=O)N[C@@H](CCSC)C(=O)N[C@@H](CCC(N)=O)C(=O)N[C@@H](CCCNC(=N)N)C(=O)N[C@@H](CCCNC(=N)N)C(N)=O [PEP-5, Myr-Glu-Glu-Met-Gln-Arg-Arg-NH2] (Myristoyl-EEMQRR-NH2)
S. epidermidis (%), normalized percentage respect to basal conditions [1]: 27.52%
NFKB1 fold induction respect to basal conditions [3]: 2.64

CCCCCCCCCCCCCCCCNC(=O)[C@H](CCCNC(=N)N)NC(=O)[C@H](CCCNC(=N)N)NC(=O)[C@H](CCC(N)=O)NC(=O)[C@H](CCSC)NC(=O)[C@H](CCC(=O)O)NC(=O)[C@H](CCC(=O)O)NC(C)=O [PEP-7, Ac-Glu-Glu-Met-Gln-Arg-Arg-NHC16H33] (Ac-EEMQRR-NHhexadecyl)
S. epidermidis (%), normalized percentage respect to basal conditions [1]: 11.43%
NFKB1 fold induction respect to basal conditions [3]: 3.09

Ac-EEMDRRAD-NH2 [PEP-13, Ac-Glu-Glu-Met-Asp-Arg-Arg-Ala-Asp-NH2]
S. epidermidis (%), normalized percentage respect to basal conditions [1]: 21.79%
NFKB1 fold induction respect to basal conditions [3]: 2.60

Ac-NEMQRRA-NH2 [PEP-43, Ac-Asn-Glu-Met-Gln-Arg-Arg-Ala-NH2]
S. epidermidis (%), normalized percentage respect to basal conditions [1]: 30.17%
NFKB1 fold induction respect to basal conditions [3]: 2.56

CCCCCCCCCCCCCCCC(=O)N[C@@H](CCC(=O)O)C(=O)N[C@@H](CCC(=O)O)C(=O)N[C@@H](CCSC)C(=O)N[C@@H](CCC(N)=O)C(=O)N[C@@H](CCCNC(=N)N)C(=O)N[C@@H](CCCCN)C(N)=O [PEP-59, Palm-Glu-Glu-Met-Gln-Arg-Lys-NH2] (Palmitoyl-EEMQRK-NH2)
S. epidermidis (%), normalized percentage respect to basal conditions [1]: 4.63%
NFKB1 fold induction respect to basal conditions [3]: 1.77

CCCCCCNC(=O)[C@H](CC(=O)O)NC(=O)[C@H](C)NC(=O)[C@H](CCCNC(=N)N)NC(=O)[C@H](CCCNC(=N)N)NC(=O)[C@H](CCC(N)=O)NC(=O)[C@H](CCSC)NC(=O)[C@H](CCC(=O)O)NC(=O)[C@H](CCC(=O)O)NC(C)=O [PEP-34, Ac-Glu-Glu-Met-Gln-Arg-Arg-Ala-Asp-NHC6H13] (Ac-EEMQRRAD-NHHex)
S. epidermidis (%), normalized percentage respect to basal conditions [1]: 61.59%
NFKB1 fold induction respect to basal conditions [3]: 2.59

Ac-EEMQRRT-NH2 [PEP-41, Ac-Glu-Glu-Met-Gln-Arg-Arg-Thr-NH2]
S. epidermidis (%), normalized percentage respect to basal conditions [1]: 35.69%
NFKB1 fold induction respect to basal conditions [3]: 2.71

Ac-EEMQRRG-NH2 [PEP-38, Ac-Glu-Glu-Met-Gln-Arg-Arg-Gly-NH2]
S. epidermidis (%), normalized percentage respect to basal conditions [1]: 49.00%
NFKB1 fold induction respect to basal conditions [3]: 2.40

H-EEMQRR-NH2 [PEP-56, H-Glu-Glu-Met-Gln-Arg-Arg-NH2]
S. epidermidis (%), normalized percentage respect to basal conditions [1]: 15.75%
NFKB1 fold induction respect to basal conditions [3]: 1.90

CCCCCCCCCCCCCCCCNC(=O)[C@H](CC(=O)O)NC(=O)[C@H](C)NC(=O)[C@H](CCCNC(=N)N)NC(=O)[C@H](CCCNC(=N)N)NC(=O)[C@H](CCC(N)=O)NC(=O)[C@H](CCSC)NC(=O)[C@H](CCC(=O)O)NC(=O)[C@H](CCC(=O)O)NC(C)=O [PEP-35, Ac-Glu-Glu-Met-Gln-Arg-Arg-Ala-Asp-NHC16H33] (Ac-EEMQRRAD-NHhexadecyl)
S. epidermidis (%), normalized percentage respect to basal conditions [1]: 90.22%
NFKB1 fold induction respect to basal conditions [3]: 2.79

CCCCCCCCCCCCCCCC(=O)N[C@@H](CCC(=O)O)C(=O)N[C@@H](CCC(=O)O)C(=O)N[C@@H](CCSC)C(=O)N[C@@H](CCC(N)=O)C(=O)N[C@@H](CCCNC(=N)N)C(=O)N[C@@H](CCCNC(=N)N)C(=O)N[C@@H](C)C(=O)N[C@@H](CC(=O)O)C(N)=O [PEP-27, Palm-Glu-Glu-Met-Gln-Arg-Arg-Ala-Asp-NH2] (Palmitoyl-EEMQRRAD-NH2)
S. epidermidis (%), normalized percentage respect to basal conditions [1]: 27.62%
NFKB1 fold induction respect to basal conditions [3]: 2.76

Ac-DEMERRA-NH2 [PEP-40, Ac-Asp-Glu-Met-Glu-Arg-Arg-Ala-NH2]
S. epidermidis (%), normalized percentage respect to basal conditions [1]: 20.56%
NFKB1 fold induction respect to basal conditions [3]: 2.55

Ac-EEMQRHAD-NH2 [PEP-20, Ac-Glu-Glu-Met-Gln-Arg-His-Ala-Asp-NH2]
S. epidermidis (%), normalized percentage respect to basal conditions [1]: 16.66%
NFKB1 fold induction respect to basal conditions [3]: 2.71

Ac-EEMDRRA-NH2 [PEP-42, Ac-Glu-Glu-Met-Asp-Arg-Arg-Ala-NH2]
S. epidermidis (%), normalized percentage respect to basal conditions [1]: 12.36%
NFKB1 fold induction respect to basal conditions [3]: 2.70

Ac-EEMNRR-NH2 [PEP-48, Ac-Glu-Glu-Met-Asn-Arg-Arg-NH2]
S. epidermidis (%), normalized percentage respect to basal conditions [1]: 18.02%
NFKB1 fold induction respect to basal conditions [3]: 1.48

Ac-EEMQKR-NH2 [PEP-46, Ac-Glu-Glu-Met-Gln-Lys-Arg-NH2]
S. epidermidis (%), normalized percentage respect to basal conditions [1]: 3.97%
NFKB1 fold induction respect to basal conditions [3]: 2.03

Ac-EEMQRK-NH2 [PEP-45, Ac-Glu-Glu-Met-Gln-Arg-Lys-NH2]
S. epidermidis (%), normalized percentage respect to basal conditions [1]: 5.48%
NFKB1 fold induction respect to basal conditions [3]: 2.21

Ac-QEMQRRAD-OH [PEP-32, Ac-Gln-Glu-Met-Gln-Arg-Arg-Ala-Asp-OH]
S. epidermidis (%), normalized percentage respect to basal conditions [1]: 13.89%
NFKB1 fold induction respect to basal conditions [3]: 2.56
